# According to PubChem BioAssay (NCI):
#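 Step 1: Grow cells in 96-well plates. Step 2: Expose to compound for 48 hours at 5 concentrations. Step 3: Interpolate endpoints linearly; if unreached, use highest concentration. GI50 marks 50% less growth. TGI: concentration producing complete growth inhibition.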
# Key:
# Assay in all cases: NCI-60 cell line screen, 48 h
# [1] = tested on: EKVX NSCLC
# [2] = tested on: LOX IMVI melanoma
# [3] = tested on: MALME-3M melanoma
# [4] = tested on: RPMI-8226 leukemia
# [5] = tested on: SF-268 CNS
# [6] = tested on: SF-295 CNS
# [7] = tested on: SN12C renal
# [8] = tested on: SNB-19 CNS
# [9] = tested on: MCF7 breast
# [10] = tested on: IGROV1 ovarian
Structure (SMILES),TGI [1],TGI [2],TGI [3],TGI [4],TGI [5],TGI [6],TGI [7],TGI [8],GI50 [1],GI50 [3],GI50 [9],TGI [9],GI50 [4],GI50 [6],GI50 [7],GI50 [8],TGI [10],GI50 [10],GI50 [2],GI50 [5]
COc1ccc2c(C(=O)O)cc3ccccc3c2c1OC,40.8 µM,35 µM,41.9 µM,> 100 µM,41.4 µM,> 100 µM,53.1 µM,> 100 µM,,,,,,,,,,,,
O=C(COc1ccc(/C=C2\Oc3ccccc3C2=O)cc1)Nc1nc2ccccc2s1,> 100 µM,,> 100 µM,15.7 µM,,> 75.3 µM,> 100 µM,> 100 µM,26.5 µM,3.94 µM,35.6 µM,> 100 µM,2.79 µM,28.7 µM,10.5 µM,41.4 µM,,,,
Cc1ccccc1C(CCCO)C(=O)O (stereo unspecified),> 100 µM,> 100 µM,> 100 µM,> 100 µM,> 100 µM,> 100 µM,> 100 µM,> 100 µM,,,,,,,,,> 100 µM,,,
CCOC(=O)C1=C(NC)OCC1=O,> 100 µM,> 100 µM,> 100 µM,> 100 µM,> 100 µM,> 100 µM,> 100 µM,> 100 µM,,,,,,,,,> 100 µM,,,
CC(=O)Nc1ccc(C2CC(c3ccc([N+](=O)[O-])cc3)=Nc3ccccc3S2=O)cc1 (stereo unspecified),97.5 µM,31.8 µM,,20.5 µM,> 100 µM,93.2 µM,72.2 µM,> 100 µM,,,,,,,,,34.7 µM,,,
O=C(NCCc1ccccc1)C1C(=O)C(=O)N(CCc2ccccc2)C1=O (stereo unspecified),> 100 µM,> 100 µM,> 100 µM,> 100 µM,> 100 µM,> 100 µM,> 100 µM,> 100 µM,,,,,,,,,> 100 µM,,,
CC12OC(=O)C(C#N)C1(C)C1C(=O)CCCC12 (stereo unspecified),> 100 µM,> 100 µM,> 100 µM,> 100 µM,> 100 µM,> 100 µM,> 100 µM,> 100 µM,,,,,,,,,> 100 µM,,,
N#Cc1ccc(Sc2nc3ccccc3[nH]2)cc1,> 100 µM,> 100 µM,> 100 µM,,> 100 µM,> 100 µM,> 100 µM,> 100 µM,,,,,,,,,> 100 µM,,,
O=C1C2C3C=CC(C2C(=O)N1CO)C1C2C(=O)N(CO)C(=O)C2C31 (stereo unspecified),> 100 µM,> 61.9 µM,> 100 µM,46.5 µM,> 79 µM,> 100 µM,> 100 µM,> 100 µM,,,,,,,,,> 100 µM,,,
COc1ccc2nc(NC(=O)C(=O)CC(=O)c3ccc([N+](=O)[O-])cc3)sc2c1,> 100 µM,,> 100 µM,> 100 µM,> 100 µM,,> 100 µM,> 100 µM,,,,,,,,,> 100 µM,,,
COc1cc(/C=C2\NC(=O)C(Cc3cc(OC)c(OC)c(C)c3OC)N(C(C)=O)C2=O)c(OC)c(C)c1OC (stereo unspecified),> 100 µM,> 100 µM,> 100 µM,> 100 µM,> 100 µM,> 100 µM,> 100 µM,> 100 µM,,,,,,,,,> 100 µM,,,
O=[N+]([O-])c1ccc(-c2ccc(C3=Nn4c(CNc5ccccc5Cl)nnc4SC3)o2)cc1,,> 100 µM,> 100 µM,> 100 µM,> 100 µM,> 100 µM,> 100 µM,> 100 µM,,,,,,,,,> 100 µM,,,
CC(=O)Oc1c(C(=O)[O-])cc(C(C)C)cc1C(C)C.CC(=O)Oc1c(C(=O)[O-])cc(C(C)C)cc1C(C)C.CC(=O)Oc1c(C(=O)[O-])cc(C(C)C)cc1C(C)C.CC(=O)Oc1c(C(=O)[O-])cc(C(C)C)cc1C(C)C.[Cu+2].[Cu+2],73.2 µM,25.8 µM,,,> 100 µM,70.5 µM,65.9 µM,61.7 µM,37.5 µM,,21 µM,65.2 µM,,24.4 µM,19.8 µM,26.3 µM,> 100 µM,30.4 µM,2.74 µM,38.7 µM
CCSCC1CC(O)(c2ccccc2)C(c2ccccc2)C(c2ccc(F)cc2)O1 (stereo unspecified),6.13 µM,3 µM,,5.95 µM,5.45 µM,,5.25 µM,7.6 µM,1.82 µM,,2.25 µM,6.81 µM,1.14 µM,,1.89 µM,2.05 µM,7.12 µM,2.68 µM,1.61 µM,2.15 µM
Cc1ccc(NC(=O)c2cc(S(=O)(=O)Nc3nnc(-c4ccccc4)c(-c4ccccc4)n3)c(SCc3ccccc3)cc2Cl)cc1,37.6 µM,28.6 µM,,44.8 µM,84.5 µM,42.2 µM,43.9 µM,57.1 µM,18 µM,,24.4 µM,> 100 µM,11.8 µM,19.4 µM,18.2 µM,20.4 µM,93.7 µM,26.9 µM,13.3 µM,20.2 µM
CC1NOC(=O)C1N=Nc1ccc(Cl)cc1Cl (stereo unspecified),73.4 µM,66.1 µM,56.8 µM,,81.7 µM,68.6 µM,49.1 µM,55.8 µM,,,,,,,,,85.7 µM,,,
C[C@H](C(=O)O)C(=O)NC(=O)N(Cc1ccccc1)N=O,> 100 µM,> 100 µM,> 100 µM,> 100 µM,> 100 µM,> 100 µM,> 100 µM,> 100 µM,,,,,,,,,> 100 µM,,,
CC(=O)OCC(=O)[C@@]1(O)CC[C@H]2[C@@H]3C[C@H](C)C4=CC(=O)C=C[C@]4(C)[C@@]3(F)[C@@H](O)C[C@@]21C,> 100 µM,> 100 µM,> 100 µM,> 100 µM,> 100 µM,> 100 µM,,> 100 µM,,,,,,,,,> 100 µM,,,
OC(c1ccccc1Br)(c1ccccc1Br)C(F)(F)F,> 100 µM,40.2 µM,52.3 µM,,43 µM,38.9 µM,38.6 µM,,,,,,,,,,> 100 µM,,,
O=C(CCCC(=O)Nc1ccc(Cl)cc1Cl)CC(=O)c1ccc2ccccc2c1,> 100 µM,> 100 µM,> 100 µM,,> 100 µM,> 100 µM,> 100 µM,> 100 µM,,,,,,,,,> 100 µM,,,
N#CC1CC(c2ccccc2)Nc2cc(Cl)ccc2N1 (stereo unspecified),> 100 µM,> 100 µM,> 100 µM,> 100 µM,> 100 µM,> 100 µM,> 100 µM,> 100 µM,,,,,,,,,> 100 µM,,,
CC(=O)Oc1ccc(C2=Cc3ccc(OC(C)=O)cc3OC2C)cc1 (stereo unspecified),13.5 µM,26.2 µM,,16 µM,30.6 µM,4.25 µM,> 100 µM,> 100 µM,2.38 µM,,6.28 µM,52.3 µM,0.59 µM,2 µM,7.08 µM,14.7 µM,17 µM,3.41 µM,4.09 µM,3.44 µM
c1ccc(C(c2ccccc2)c2ccccn2)cc1,> 100 µM,> 100 µM,> 100 µM,> 100 µM,> 100 µM,> 100 µM,> 100 µM,> 100 µM,,,,,,,,,> 100 µM,,,
O=C1NC(=O)C2C(=O)NC(=O)C1C2Cc1ccco1 (stereo unspecified),> 100 µM,> 100 µM,> 100 µM,> 100 µM,> 100 µM,> 100 µM,> 100 µM,> 100 µM,,,,,,,,,> 100 µM,,,
COc1ccc(-c2nc3ccc(Cc4ccc5nc(-c6ccc(OC)cc6)[nH]c5c4)cc3[nH]2)cc1,,0.217 µM,,0.326 µM,1.85 µM,0.364 µM,2.29 µM,5.8 µM,,,0.0254 µM,0.424 µM,0.0425 µM,0.0176 µM,0.165 µM,0.0469 µM,2.26 µM,0.0445 µM,0.0543 µM,0.0556 µM
CCOC(=O)C1(C)CCC(C(C(=O)O)C(=O)O)CC1=O (stereo unspecified),> 100 µM,> 100 µM,> 100 µM,> 100 µM,> 100 µM,> 100 µM,> 100 µM,> 100 µM,,,,,,,,,> 100 µM,,,
COC(=O)C1=C(C(=O)OC)C2(c3ccccc3)OC1(c1ccccc1)c1cc3ccccc3cc12,3.33 µM,2.71 µM,3.19 µM,4.19 µM,3.77 µM,19.8 µM,4.18 µM,15.5 µM,,,,,,,,,3.78 µM,,,
CC(=O)[CH-]C(=O)c1ccccc1.[C-]#[O+].[C-]#[O+].[Ir],> 100 µM,> 100 µM,> 100 µM,> 10 µM,,> 100 µM,> 100 µM,> 100 µM,> 100 µM,> 100 µM,,,> 10 µM,> 100 µM,> 100 µM,> 100 µM,> 100 µM,> 100 µM,> 100 µM,
CNCc1ccc(-c2cc(-c3nc(-c4ccc(S(=O)(=O)C(C)C)cc4)cnc3N)on2)cc1,,,,8.45 µM,3.29 µM,22.9 µM,33.4 µM,36.8 µM,,,0.0946 µM,1.82 µM,1.31 µM,4.5 µM,8.58 µM,12.1 µM,10.5 µM,1.2 µM,,1.41 µM
